Measurements: patent US10259810B2, “N-sulfonylated pyrazolo[3,4-b]pyridin-6-carboxamides and method of use” (AbbVie S.à.r.l., priority 2015, dated 2019)

Legend:
Type in all cases: cell-based
ΔF508-CFTR [1] = molecular target: T1, ΔF508-CFTR (Homo sapiens, UniProt P13569, DEL508-508); experiment: CFTR cell surface levels using HRP-tagged ΔF508-CFTR expressing CFBE cells, intrinsic corrector capacity; design: % Activation: concentration or dose not given beside the values; conditions: HRP-tagged ΔF508-CFTR expressing CFBE41o- cells, compound alone (intrinsic corrector capacity), 20 hours at 33° C.; for EC50: read-out: EC50
T1 construct: host or cells: CFBE41o-, doxycycline-inducible
Summary of the method: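 Read-out: chemiluminescent HRP activity of ECL4-HRP-tagged ΔF508-CFTR at the cell surface, 15 min substrate in dark. Normalized as 100×(sample−DMSO)/(positive control−DMSO).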

ΔF508-CFTR [2] = molecular target: T1, ΔF508-CFTR; experiment: CFTR cell surface levels using HRP-tagged ΔF508-CFTR expressing CFBE cells, in the presence of a co-corrector; conditions: HRP-tagged ΔF508-CFTR CFBE cells, in the presence of 3 μM co-corrector; for EC50: read-out: EC50
Summary of the method: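 Chemiluminescent read-out of surface HRP (15 min, dark) after PBS washes. Activity is normalized as 100×(sample−DMSO)/(3 μM co-corrector alone−DMSO).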

CFTR ΔF508 = molecular target: T2, CFTR ΔF508 (Homo sapiens, UniProt P13569, DEL508-508); experiment: Chronic TECC assay, primary bronchial epithelial cells of CF patients homozygous for CFTR ΔF508 (corrector, co-corrector and potentiator); conditions: chronic TECC, AUC = full area under the curve upon forskolin stimulation; for % Activity at 1 μM (AUC**): test compound at 1 μM; for % Activity at 3 μM (AUC**): test compound at 3 μM
T2 construct: bronchial epithelial cells isolated from CF patients homozygous for the CFTR ΔF508 mutation; McGill University; Asterand; University of North Carolina hAEC-CF; host or cells: primary human bronchial epithelial cells from CF patients homozygous for ΔF508, differentiated at air-liquid interface
Summary of the method: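 Primary bronchial epithelial cells from ΔF508-homozygous CF patients on collagen IV-coated Transwells were chronically treated with test compound plus corrector and potentiator, which were re-added before recording. Ieq was derived from PD and Rt in NaCl-Ringer, pH 7.4, at 37° C, with apical amiloride and bilateral forskolin, recorded every 2 min over 20 min. Ieq increase was normalized to controls, and EC50 was taken from per-well concentrations.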

T1 sequence (P13569 with tags, fused parts or gaps DEL508-508): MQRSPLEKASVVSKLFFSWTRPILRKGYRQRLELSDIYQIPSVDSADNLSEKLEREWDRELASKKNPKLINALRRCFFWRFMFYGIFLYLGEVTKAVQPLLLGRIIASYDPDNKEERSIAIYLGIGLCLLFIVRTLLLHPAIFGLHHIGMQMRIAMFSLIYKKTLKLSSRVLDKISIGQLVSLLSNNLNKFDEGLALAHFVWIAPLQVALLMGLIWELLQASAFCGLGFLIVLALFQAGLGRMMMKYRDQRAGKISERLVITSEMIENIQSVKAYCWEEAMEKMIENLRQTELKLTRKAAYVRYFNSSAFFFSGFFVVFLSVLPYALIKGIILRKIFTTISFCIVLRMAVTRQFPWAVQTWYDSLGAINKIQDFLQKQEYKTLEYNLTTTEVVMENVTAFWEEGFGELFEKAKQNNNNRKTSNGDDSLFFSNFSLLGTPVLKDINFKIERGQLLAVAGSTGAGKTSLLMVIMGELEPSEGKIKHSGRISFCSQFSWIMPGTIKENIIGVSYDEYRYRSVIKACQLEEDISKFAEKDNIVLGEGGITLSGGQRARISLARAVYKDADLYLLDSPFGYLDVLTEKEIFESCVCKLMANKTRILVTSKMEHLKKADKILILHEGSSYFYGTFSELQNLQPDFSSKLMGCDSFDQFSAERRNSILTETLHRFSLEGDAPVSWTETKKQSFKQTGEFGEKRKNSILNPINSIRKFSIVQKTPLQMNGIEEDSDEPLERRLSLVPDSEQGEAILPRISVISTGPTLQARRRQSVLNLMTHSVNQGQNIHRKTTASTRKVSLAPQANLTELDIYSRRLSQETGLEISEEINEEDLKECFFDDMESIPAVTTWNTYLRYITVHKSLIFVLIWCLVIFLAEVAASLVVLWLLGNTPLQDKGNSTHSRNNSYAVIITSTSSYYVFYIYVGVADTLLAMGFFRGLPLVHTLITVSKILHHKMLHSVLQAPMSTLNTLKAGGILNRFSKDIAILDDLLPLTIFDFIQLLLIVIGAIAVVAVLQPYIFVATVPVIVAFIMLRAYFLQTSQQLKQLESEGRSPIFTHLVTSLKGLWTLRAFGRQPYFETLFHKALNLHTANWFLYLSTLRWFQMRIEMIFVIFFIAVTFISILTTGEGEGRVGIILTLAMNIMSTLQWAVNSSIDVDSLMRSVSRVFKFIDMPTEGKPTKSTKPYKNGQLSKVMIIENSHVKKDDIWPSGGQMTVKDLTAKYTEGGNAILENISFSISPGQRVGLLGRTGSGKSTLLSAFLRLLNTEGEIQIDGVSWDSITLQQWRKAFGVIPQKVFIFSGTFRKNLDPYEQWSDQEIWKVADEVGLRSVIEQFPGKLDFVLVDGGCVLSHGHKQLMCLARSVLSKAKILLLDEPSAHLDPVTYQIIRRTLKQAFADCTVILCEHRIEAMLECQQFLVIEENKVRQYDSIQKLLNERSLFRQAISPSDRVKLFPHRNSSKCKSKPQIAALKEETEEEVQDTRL
T2 sequence (P13569 with tags, fused parts or gaps DEL508-508): as above

SMILES | % Activation (ΔF508-CFTR [1]) [%] | EC50 (ΔF508-CFTR [1]) [nM] | % Activation (ΔF508-CFTR [2]) [%] | EC50 (ΔF508-CFTR [2]) [nM] | % Activity at 1 μM (AUC**) (CFTR ΔF508) [%] | EC50 (CFTR ΔF508; read-out: EC50 (nM) (AUC**)) | % Activity at 3 μM (AUC**) (CFTR ΔF508) [%]
O=C(NS(=O)(=O)NC1CCOCC1)c1cc(N2CCC(N3CCOCC3)CC2)c2c(C3CCC3)nn(-c3ccc(F)cc3)c2n1 [Compound 578, 3-cyclobutyl-1-(4-fluorophenyl)-4-[4-(morpholin-4-yl)piperidin-1-yl]-N-[(oxan-4-yl)sulfamoyl]-1H-pyrazolo[3,4-b]pyridine-6-carboxamide] | 309.25 | 152 | 462.3 | 108 | 936.6667 |  | 
CN(C)S(=O)(=O)NC(=O)c1cc(N2CCC(N3CCN(C4CC4)CC3)CC2)c2c(C3CCC3)nn(-c3ccc(F)cc3)c2n1 [Compound 583, 3-cyclobutyl-4-[4-(4-cyclopropylpiperazin-1-yl)piperidin-1-yl]-N-(dimethylsulfamoyl)-1-(4-fluorophenyl)-1H-pyrazolo[3,4-b]pyridine-6-carboxamide] | 269.7 | 178 | 480.15 | 47.6 | 613.3333 | 51.3 | 
CN(C)S(=O)(=O)NC(=O)c1cc(N2CCC(CN3CCCC3)CC2)c2c(C3CCC3)nn(-c3ccc(F)cc3)c2n1 [Compound 589, 3-cyclobutyl-N-(dimethylsulfamoyl)-1-(4-fluorophenyl)-4-{4-[(pyrrolidin-1-yl)methyl]piperidin-1-yl}-1H-pyrazolo[3,4-b]pyridine-6-carboxamide] | 193.6 | 200 | 422.95 | 148 | 236.6667 |  | 
CCOC(=O)N1CCN(C2CCN(c3cc(C(=O)NS(=O)(=O)N(C)C)nc4c3c(C3CCC3)nn4-c3ccc(F)cc3)CC2)CC1 [Compound 590, ethyl 4-(1-{3-cyclobutyl-6-[(dimethylsulfamoyl)carbamoyl]-1-(4-fluorophenyl)-1H-pyrazolo[3,4-b]pyridin-4-yl}piperidin-4-yl)piperazine-1-carboxylate] | 290.3 | 86.7 | 487.9 | 31.4 |  |  | 220.4586
CN(C)S(=O)(=O)NC(=O)c1cc(C2CCN(C3CCC(F)(F)CC3)CC2)c2c(C3CCC3)nn(-c3ccc(F)cc3)c2n1 [Compound 594, 3-cyclobutyl-4-[1-(4,4-difluorocyclohexyl)piperidin-4-yl]-N-(dimethylsulfamoyl)-1-(4-fluorophenyl)-1H-pyrazolo[3,4-b]pyridine-6-carboxamide] | 135.7 | 519 | 308.05 | 181 |  |  | 320
CC(C)Oc1nn(C2CCCCC2)c2nc(C(=O)NS(C)(=O)=O)cc(-c3ccc(CN4CCN(C5CC5)CC4)cc3)c12 [Compound 597, 1-cyclohexyl-4-{4-[(4-cyclopropylpiperazin-1-yl)methyl]phenyl}-N-(methanesulfonyl)-3-[(propan-2-yl)oxy]-1H-pyrazolo[3,4-b]pyridine-6-carboxamide] | 214.3 | 130 | 433.93 | 111 | 263.3333 |  | 
CS(=O)(=O)NC(=O)c1cc(C2CCN(C3CCOCC3)CC2)c2c(C3CCC3)nn(-c3ccc(F)cc3)c2n1 [Compound 599, 3-cyclobutyl-1-(4-fluorophenyl)-N-(methanesulfonyl)-4-[1-(oxan-4-yl)piperidin-4-yl]-1H-pyrazolo[3,4-b]pyridine-6-carboxamide] | 88.94 | 331 | 285.2 | 270 | 116.6667 |  | 
CN(C)S(=O)(=O)NC(=O)c1cc(N2CCC(N3CCC(O)CC3)CC2)c2c(C3CCC3)nn(-c3ccc(F)cc3)c2n1 [Compound 605, 3-cyclobutyl-N-(dimethylsulfamoyl)-1-(4-fluorophenyl)-4-(4-hydroxy[1,4'-bipiperidin]-1'-yl)-1H-pyrazolo[3,4-b]pyridine-6-carboxamide] | 207.5 | 317 | 395.8 | 723 | 726.6667 |  | 
COCC1CCN(c2cc(C(=O)NS(=O)(=O)N3CCC(N4CCOCC4)C3)nc3c2c(C2CCC2)nn3-c2ccc(F)cc2)CC1 (centres unmarked) [Compound 608, 3-cyclobutyl-1-(4-fluorophenyl)-4-[4-(methoxymethyl)piperidin-1-yl]-N-[3-(morpholin-4-yl)pyrrolidine-1-sulfonyl]-1H-pyrazolo[3,4-b]pyridine-6-carboxamide] | 194.67 | 104 | 365.7 | 54.8 |  |  | 442.1916
COCC1CCN(c2cc(C(=O)NS(=O)(=O)N3CCN(C4CC4)CC3)nc3c2c(C2CCC2)nn3-c2ccc(F)cc2)CC1 [Compound 609, 3-cyclobutyl-N-(4-cyclopropylpiperazine-1-sulfonyl)-1-(4-fluorophenyl)-4-[4-(methoxymethyl)piperidin-1-yl]-1H-pyrazolo[3,4-b]pyridine-6-carboxamide] | 202.53 | 249 | 414.2 | 109 |  |  | 306.6667
CC(C)N1CCC(c2cc(C(=O)NS(C)(=O)=O)nc3c2c(C2CCC2)nn3-c2ccc(F)cc2)CC1 [Compound 611, 3-cyclobutyl-1-(4-fluorophenyl)-N-(methanesulfonyl)-4-[1-(propan-2-yl)piperidin-4-yl]-1H-pyrazolo[3,4-b]pyridine-6-carboxamide] | 77.39 | 3330 | 236.7 | 2620 |  |  | 176.7495
CN(C)S(=O)(=O)NC(=O)c1cc(N2CCC3(CC2)CCN(C2COC2)CC3)c2c(C3CCC3)nn(-c3ccc(F)cc3)c2n1 [Compound 614, 3-cyclobutyl-N-(dimethylsulfamoyl)-1-(4-fluorophenyl)-4-[9-(oxetan-3-yl)-3,9-diazaspiro[5.5]undecan-3-yl]-1H-pyrazolo[3,4-b]pyridine-6-carboxamide] | 172 | 211 | 381.35 | 171 |  |  | 407.7118
CC(C)Oc1nccc(-n2nc(C3CCC3)c3c(N4CCC(N5CCOCC5)CC4)cc(C(=O)NS(=O)(=O)N(C)C)nc32)n1 [Compound 621, 3-cyclobutyl-N-(dimethylsulfamoyl)-4-[4-(morpholin-4-yl)piperidin-1-yl]-1-{2-[(propan-2-yl)oxy]pyrimidin-4-yl}-1H-pyrazolo[3,4-b]pyridine-6-carboxamide] | 160.45 | 173 | 348.55 | 77 |  |  | 256.6667
CN(C)S(=O)(=O)NC(=O)c1cc(N2CCC(N3CCOCC3)CC2)c2c(C3CCC3)nn(-c3ccc4c(c3)OC(F)(F)O4)c2n1 [Compound 623, 3-cyclobutyl-1-(2,2-difluoro-2H-1,3-benzodioxol-5-yl)-N-(dimethylsulfamoyl)-4-[4-(morpholin-4-yl)piperidin-1-yl]-1H-pyrazolo[3,4-b]pyridine-6-carboxamide] | 238.53 | 113 | 424.77 | 55.6 |  |  | 433.3333
CN1CCN(S(=O)(=O)NC(=O)c2cc(N3CCC(N4CCOCC4)CC3)c3c(C4CCC4)nn(-c4ccc(F)cc4)c3n2)CC1 [Compound 624, 3-cyclobutyl-1-(4-fluorophenyl)-N-(4-methylpiperazine-1-sulfonyl)-4-[4-(morpholin-4-yl)piperidin-1-yl]-1H-pyrazolo[3,4-b]pyridine-6-carboxamide] | 100.59 | 1200 | 274.15 | 549 |  |  | 310
CC(C)N1CCC2CN(c3cc(C(=O)NS(=O)(=O)N(C)C)nc4c3c(C3CCC3)nn4-c3ccc(F)cc3)CCC21 (centres unmarked) [Compound 625, 3-cyclobutyl-N-(dimethylsulfamoyl)-1-(4-fluorophenyl)-4-[1-(propan-2-yl)octahydro-5H-pyrrolo[3,2-c]pyridin-5-yl]-1H-pyrazolo[3,4-b]pyridine-6-carboxamide] | 182.2 | 223 | 353.87 | 126 | 403.3333 |  | 
CN(C)S(=O)(=O)NC(=O)c1cc(N2CCC3C(CCN3C3CCC3)C2)c2c(C3CCC3)nn(-c3ccc(F)cc3)c2n1 (centres unmarked) [Compound 626, 3-cyclobutyl-4-(1-cyclobutyloctahydro-5H-pyrrolo[3,2-c]pyridin-5-yl)-N-(dimethylsulfamoyl)-1-(4-fluorophenyl)-1H-pyrazolo[3,4-b]pyridine-6-carboxamide] | 206.6 | 151 | 418.4 | 111 |  |  | 387.4854
